Results reported in article PMC7190660, “Standardised comparison of limonene-derived monoterpenes identifies structural determinants of anti-inflammatory activity” (Scientific Reports, 2020).
“And” between values parts separate entries of the source, which are not always exact repeats. Equal values may be shown once. “Also recorded” adds a separate entry of the source.

Key:
[1] = tested on: IL-1β; experiment: LPS-induced IL-1β mRNA, pro-IL-1β protein and secreted IL-1β in Raw 264.7; assay type: cell-based, mouse; conditions: for LPS-induced IL-1β mRNA levels: LPS 1 µg/mL 6 h, 1 h pre-treatment with 666 µM; for mature IL-1β secreted into the cell culture medium / pro-IL-1β protein levels: LPS 1 µg/mL 18 h, relative to LPS alone; for mature IL-1β secreted into the cell culture medium: 666 µM, ELISA
Protocol: Upon transcription, this mRNA is translated into a precursor protein (pro-IL-1β) that undergoes partial hydrolysis by a proteolytic complex, the inflammasome, being converted into the mature IL-1β protein which is then secreted.
Figure 3 (S)-(+)-carvone (4) and (R)-(−)-carvone (5) decrease LPS-induced IL-1β mRNA (a) and protein (b,c) levels in the Raw 264.7 cell line. Macrophage cultures were treated with 1 µg/mL LPS, for 6 h (a) or 18 h (b,c), following pre-treatment for 1 h with 666 µM of each test compound (a and c) or with the concentrations indicated in (b). Control cells (Ctrl) were treated with vehicle (0.1% DMSO) in the absence of LPS. Each column represents the mean ± SEM of, at least, three independent experiments. The blots shown are representative of, at least, three independent experiments and are cropped for clarity and conciseness. The corresponding full-length blots are presented in Fig. S3. *p < 0.05, **p < 0.01 and ****p < 0.0001 relative to LPS-treated cells. ^##p < 0.01, ^###p < 0.001 and ^####p < 0.0001 relative to the Ctrl. ^§p < 0.05 between the conditions indicated. MW: molecular weight marker.
(§1) This vehicle was used as control. Lipopolysaccharides from Escherichia coli 026:B6 (LPS; Sigma-Aldrich Co.) were dissolved in phosphate buffered saline (PBS). Recombinant human interleukin-1β (IL-1β; Peprotech, Rocky Hill, NJ, USA) was dissolved in PBS containing 0.1% Bovine Serum Albumin.
Total RNA extraction and qRT-PCR were performed as described before. Briefly, total RNA was extracted using the NZYol (NZYTECH, Lisbon, Portugal) and quantified in a NanoDrop ND-1000 spectrophotometer at 260 nm. RNA purity was assessed by analysis of 260/230 and 260/280 absorption ratios. The cDNA was reverse-transcribed using NZY First Strand cDNA Synthesis Kit (NZYTECH), beginning with 2 µg of total RNA. qRT-PCR was performed, in duplicate for each sample, using NZYSpeedy qPCR Green Master Mix (2×) (NZYTECH) on CFX96 Real-Time PCR Detection System (Bio-Rad, Hercules, CA, USA).
Gene expression changes were analysed using the built-in CFX Manager software which enables the analysis of the results by the Pfaffl method, a variation of the ΔΔCT method corrected for gene-specific efficiencies. The results were normalized using Hprt1 as housekeeping gene.
(§2) Total cell extracts were prepared and western blot was performed as described before. Briefly, total (25 µg for Raw 264.7 cell line and 20 µg for human chondrocytes) proteins were separated by SDS-PAGE under reducing conditions and electrotransferred onto PVDF membranes. […] Immune complexes were detected with Enhanced ChemiFluorescence reagent (GE Healthcare) in the imaging system Thyphoon FLA 9000 (GE Healthcare). The membranes were reprobed with a mouse monoclonal anti-β-Tubulin I antibody (Sigma-Aldrich Co.), diluted at 1:20000, as a loading control, for 1 h at room temperature. Image analysis was performed with TotalLab TL120 software (Nonlinear Dynamics Ltd).
The concentration of IL-1β in the culture supernatants was measured using the Mouse IL-1β ELISA kit (ThermoScientific, Rockford, USA), following the manufacturer’s instructions.

[2] = tested on: NOS2; experiment: NO production and NOS2 protein levels pre-induced by LPS (compound added after LPS removal) in Raw 264.7; assay type: cell-based, mouse; conditions: LPS 1 μg/mL 8 h, LPS removed, then 666 µM compound for 18 h
Protocol: (§3) Each column represents the mean ± SEM of, at least, three independent experiments. The blots shown are representative of, at least, three independent experiments and are cropped for clarity and conciseness.
(§4) NO production was measured as the amount of nitrite accumulated in the culture supernatants using the Griess reaction which is based in the reaction of nitrite with sulfanilamide under acidic conditions, yielding a diazonium ion that couples to N-(1-napthtyl)ethylenediamine dihydrochloride to form a water-soluble red-violet azo dye that absorbs at 550 nm[51]. Briefly, equal volumes of culture supernatants and reagents [equal volumes of 1% (w/v) sulphanilamide in 5% (v/v) phosphoric acid and 0.1% (w/v) N-(1-napthtyl)ethylenediamine dihydrochloride] were mixed and incubated for 10 min, at room temperature, in the dark. The concentration of nitrite accumulated in the culture supernatants was calculated by interpolation of the absorbance of each sample, read in Biotek Synergy HT plate reader (Biotek), in a standard curve of sodium nitrite.
as §2

[3] = tested on: Raw 264.7 cells; experiment: Cytotoxicity by resazurin reduction assay in Raw 264.7 cells; assay type: cell-based, mouse; conditions: viability not decreased by more than 30% relative to LPS alone (ISO 10993-5), LPS 1 µg/mL 18 h
Protocol: Various concentrations of the test compounds, in the absence or presence of LPS, were first evaluated for cytotoxicity using the resazurin reduction assay[26]
(§5) Raw 264.7 cells were plated at a density of 3 × 10^5 cells/mL and left to stabilize for up to 24 h.
Resazurin is a redox dye used as an indicator of cellular metabolic activity for various applications, namely cell viability, proliferation and toxicity. The assay is based on the intracellular reduction of the non-fluorescent resazurin to resorufin (a fluorescent and pink coloured compound) by mitochondrial or microsomal enzymes that use NADH or NADPH as electron sources. Since only metabolically active cells can reduce the dye, the increase in fluorescence or absorbance is directly proportional to the number of viable cells[26],[50].
(§6) To select non-cytotoxic concentrations of the test compounds, the resazurin solution was added to each well to a final concentration of 50 µM, 90 min before the end of the treatment period indicated in the figure legends. Then, absorbances at 570 nm and 620 nm (reference wavelength) were read in a Biotek Synergy HT plate reader (Biotek, Winooski, VT, USA).

[4] = tested on: LPS-induced NO production in Raw 264.7 macrophages; experiment: Primary screening: LPS-induced NO production (nitrite, Griess reaction) in Raw 264.7 macrophages; assay type: cell-based, mouse; conditions: for IC50: Mus musculus, RAW264.7, Raw 264.7 cell line; for Decrease (inhibition) of LPS-induced NO production: at the highest concentration tested; for Decrease (inhibition) of LPS-induced NO production / % inhibition of LPS-induced NO production / Effect on LPS-induced NO production / anti-inflammatory activity (in words): Raw 264.7; for % inhibition of LPS-induced NO production: at the highest non-cytotoxic concentration tested, nitrite in supernatants; for Effect on LPS-induced NO production / anti-inflammatory activity (in words): non-cytotoxic concentrations
Protocol: as §5, §1, §4

[5] = tested on: NOS2; experiment: LPS-induced NOS2 mRNA (qRT-PCR) and protein (western blot) in Raw 264.7; assay type: cell-based, mouse; conditions: 1 h pre-treatment, Bay 11-7082 5 μM; for LPS-induced NOS2 mRNA levels: LPS 1 µg/mL 6 h, test compounds 666 µM; for LPS-induced NOS2 protein levels: LPS 1 µg/mL 18 h
Protocol: Macrophage cultures were treated with 1 µg/mL LPS, for 6 h (a) or 18 h (b), following pre-treatment for 1 h with 666 µM of each test compound (a) or with the concentrations indicated in (b). […] Control cells (Ctrl) were treated with the vehicle (0.1% DMSO) in the absence of LPS. Each column represents the mean ± SEM of four independent experiments. The blots shown are representative of, at least, three independent experiments and are cropped for clarity and conciseness.
Total RNA extraction and qRT-PCR were performed as described before[52]. Briefly, total RNA was extracted using the NZYol (NZYTECH, Lisbon, Portugal) and quantified in a NanoDrop ND-1000 spectrophotometer at 260 nm. RNA purity was assessed by analysis of 260/230 and 260/280 absorption ratios. The cDNA was reverse-transcribed using NZY First Strand cDNA Synthesis Kit (NZYTECH), beginning with 2 µg of total RNA. qRT-PCR was performed, in duplicate for each sample, using NZYSpeedy qPCR Green Master Mix (2×) (NZYTECH) on CFX96 Real-Time PCR Detection System (Bio-Rad, Hercules, CA, USA).
Gene expression changes were analysed using the built-in CFX Manager software which enables the analysis of the results by the Pfaffl method, a variation of the ΔΔCT method corrected for gene-specific efficiencies[53]. The results were normalized using Hprt1 as housekeeping gene.
Total cell extracts were prepared and western blot was performed as described before[54]. Briefly, total (25 µg for Raw 264.7 cell line and 20 µg for human chondrocytes) proteins were separated by SDS-PAGE under reducing conditions and electrotransferred onto PVDF membranes. […] Immune complexes were detected with Enhanced ChemiFluorescence reagent (GE Healthcare) in the imaging system Thyphoon FLA 9000 (GE Healthcare). The membranes were reprobed with a mouse monoclonal anti-β-Tubulin I antibody (Sigma-Aldrich Co.), diluted at 1:20000, as a loading control, for 1 h at room temperature. Image analysis was performed with TotalLab TL120 software (Nonlinear Dynamics Ltd).

[6] = tested on: human chondrocytes; experiment: Cell viability of IL-1β-treated primary human chondrocytes (resazurin); assay type: cell-based; conditions: 666 or 1331 µM; IL-1β 10 ng/mL 24 h
Protocol: as §3, §1, §6

[7] = tested on: human chondrocytes; experiment: IL-1β-induced NOS2 protein, NO production and pro-IL-1β protein in primary human chondrocytes; assay type: cell-based; conditions: IL-1β 10 ng/mL 24 h
Protocol: The cells were treated with 10 ng/mL IL-1β for 24 h (a, b, c and d), following pre-treatment for 1 h with 666 or 1331 µM of (S)-(+)-carvone (4). As a positive control, the cells were similarly treated with 5 μM Bay 11-7082 (b and c). Control cells (Ctrl) were treated with the vehicle (0.1% DMSO) in the absence of IL-1β. Each column represents the mean ± SEM of, at least, three independent experiments. The blots shown are representative of, at least, three independent experiments and are cropped for clarity and conciseness.
Briefly, cartilage shavings underwent sequential digestion with Pronase (Roche, Indianapolis, IN, USA) and collagenase A (Roche, Indianapolis, IN, USA). To avoid chondrocyte dedifferentiation, non-proliferating monolayer cultures were setup by plating 1× 10^6 chondrocytes/mL in HAM: F12 medium containing 3% antibiotics and 5% FBS and allowed to recover for 24 h at 37 °C in a humidified atmosphere with 5% CO2. Prior to any treatments, chondrocytes were serum-starved overnight and thereafter maintained in culture medium without FBS.
This vehicle was used as control. […] Recombinant human interleukin-1β (IL-1β; Peprotech, Rocky Hill, NJ, USA) was dissolved in PBS containing 0.1% Bovine Serum Albumin.
Total cell extracts were prepared and western blot was performed as described before[54]. […] Immune complexes were detected with Enhanced ChemiFluorescence reagent (GE Healthcare) in the imaging system Thyphoon FLA 9000 (GE Healthcare). The membranes were reprobed with a mouse monoclonal anti-β-Tubulin I antibody (Sigma-Aldrich Co.), diluted at 1:20000, as a loading control, for 1 h at room temperature. Image analysis was performed with TotalLab TL120 software (Nonlinear Dynamics Ltd).

[8] = tested on: human chondrocytes; design: method as in PMID 25622554; conditions: limonene up to 200 μg/mL, β-myrcene up to 50 μg/mL; cited from earlier work
[9] = tested on: Raw 264.7 cell line; design: method as in PMID 20625233, PMID 23541436; conditions: concentrations much higher than in the current study; cited from earlier work
[10] = carvone 666 or 1331 µM, Bay 11-7082 5 µM

Compound | LPS-induced IL-1β mRNA levels [1] | mature IL-1β secreted into the cell culture medium [1] | pro-IL-1β protein levels [1] | Decrease of NO production [2] | Reduction of NOS2 protein levels [2] | Highest non-cytotoxic concentration tested [3] | IC50 [4] | Decrease (inhibition) of LPS-induced NO production [4] | % inhibition of LPS-induced NO production [4] | LPS-induced NOS2 mRNA levels [5] | LPS-induced NOS2 protein levels [5] | Cell viability relative to cells treated with IL-1β alone [6] | pro-IL-1β protein levels ([7]; 666 or 1331 µM) | IL-1β-induced NO production [7, 10] | IL-1β-induced NOS2 protein levels [7, 10] | Anti-inflammatory effects [8] | Anti-inflammatory effects [9] | Effect on LPS-induced NO production / anti-inflammatory activity (in words) [4] | Effect on LPS-induced NO production / anti-inflammatory activity (in words) ([4]; listed as 16)
C=C(C)[C@@H]1CC=C(C)C(=O)C1 [(R)-(−)-carvone (5), (R)-(−)-carvone] | significantly reduced | significantly decreased | significantly decreased | approximately 30% | approximately 60% | 666 µM and 100 µg/mL | 123 µM and 18.5 µg/mL | greater than 30% | 71.50 ± 1.74 % ± SEM | significantly reduced | significantly reduced |  |  |  |  |  |  |  | 
C=C(C)[C@H]1CC=C(C)C(=O)C1 [(S)-(+)-carvone (4), (S)-(+)-carvone] | significantly reduced | significantly decreased | significantly decreased | approximately 30% | approximately 60% | 666 µM and 100 µg/mL | 110 µM and 16.5 µg/mL | greater than 30% | 68.73 ± 1.55 % ± SEM | significantly reduced | significantly reduced | not to affect cell viability | significantly decreased pro-IL-1β protein levels in a concentration-dependent manner | significantly decreased | significantly decreased |  |  |  | 
C=C(C)[C@H]1CC=C(C)CC1 [limonene] |  |  |  |  |  |  |  |  |  |  |  |  |  |  |  | Significant anti-inflammatory effects | Significant anti-inflammatory effects |  | 
C=CC(=C)CCC=C(C)C [β-myrcene (16), β-myrcene] |  |  |  |  |  | 183 µM and 25 µg/mL |  |  | 16.48 ± 17.00 % ± SEM |  |  |  |  |  |  | Significant anti-inflammatory effects | Significant anti-inflammatory effects | showed no activity | no effect; also recorded: Neither the more rigid (17–19), nor the more flexible (16) of these four compounds showed any activity
